Experimental data as given in patent US5561117A, “Bridged bis-aryl carbinol derivatives, compositions and methods of use” (Schering Corporation, priority 1994, dated 1996).

Tests used:
[1] = tested on: PAF-induced platelet aggregation (human platelets); assay: In vitro platelet aggregation assay: inhibition of PAF-induced aggregation in platelet-rich plasma; format: cell-based; settings: PAF-induced aggregation of human PRP, 2 min preincubation, 37° C., PAF 1-5×10^-8 M, read-out: PAF Antagonism (in vitro) IC50
Experimental: A. In Vitro Studies--Platelet Aggregation Assay
Platelet-activating factor (PAF) causes aggregation of platelets by a receptor-mediated mechanism. Therefore, PAF-induced platelet aggregation provides a simple and convenient assay to screen compounds for PAF antagonism.
Human blood (50 ml) was collected from healthy male donors in an anticoagulant solution (5 ml) containing sodium citrate (3.8%) and dextrose (2%). Blood was centriguged at 110×g for 15 min. and the supernatant platelet-rich plasma (PRP) carefully transferred into a polypropylene tube. Platelet-poor-plasma (PPP) was prepared by centrifuging PRP at 12,000×g for 2 min. (Beckman Microfuge B). PRP was used within 3 hr. of drawing the blood.
PAF was dissolved in chloroform:methanol (1:1, v/v) at a concentration of 2 mg/ml and stored at -70° C. An aliquot of this solution was transferred to a polypropylene tube and dried under a flow of nitrogen gas. To the dried sample was added Hepes-saline-BSA (BSA=bovine serum albumen) buffer (25 mM Hepes, pH 7.4, […], 0.7 mM MgCl2 and 0.1% BSA) to obtain a 1 mM solution and sonicated for 5 min. in a bath sonicator. This stock solution was further diluted to appropriate concentrations in Hepes-saline-BSA buffer. Collagen (Sigma) and adenosine diphosphate (ADP) (Sigma) were purchased as solutions. Test compounds were initially dissolved in dimethyl sulfoxide (DMSO) at a concentration of 50 mM and then further diluted in Hepes-saline-BSA buffer to achieve appropriate concentrations.
When an aggregating agent such as PAF is added to PRP, platelets aggregate. An aggregometer quantifies this aggregation by measuring and comparing light (infra-red) transmission through PPP and PRP. Aggregation assays were performed using a dual-channel aggregometer (Model 440, Chrono-Log Corp., Havertown, Pa.). PRP (0.45 ml) in aggregometer cuvettes was continually stirred (37° C.). Solutions (50 μL) of test compounds or vehicel were added to the PRP and, after incubation for 2 min., 10-15 μl aliquots of PAF solution were added to achieve a final concentration of 1-5×10^-8 M. In different experiments the aggreatory response was kept within a set limit by varying the concentration of PAF. Incubations were continued until the increase in light transmission reached a maximum (usually 2 min.). This increase in light transmission reflecting platlet aggregation is transmitted to a computer by the Chrono-Log model 810 AGGRO/LINK interface. The AGGRO/LINK calculates the slope of transmission change, thus providing the rate of aggregation. Values for inhibition were calculated by comparing rates of aggregation obtained in the absence and the presence of the compound. For each experiment, a standard PAF antagonist such as 8-chloro-6,11-dihydro-11-(1-acetyl-4-piperidylidene)-5H-benzo[5,6]cyclohepta[1,2-b]pyridine was used as a positive control. […]

PAF-induced bronchospasm = assay: Spasmogen-induced bronchospasm in guinea pigs, PAF challenge; format: in vivo, guinea pig (male Hartley); settings: dose 3 mpk, PAF 0.4 μg/kg i.v., inhibition of increase in inflation pressure vs control
[2] = tested on: histamine-induced bronchospasm; assay: Spasmogen-induced bronchospasm in guinea pigs, histamine challenge; format: in vivo, guinea pig (male Hartley); settings: dose 3 mpk, histamine 10 ug/kg i.v., inhibition of increase in inflation pressure vs control

Structure (SMILES): O=C(c1cc[n+]([O-])cc1)N1CCC(C2(O)c3ccccc3Oc3cnccc32)CC1 (stereo not shown) [IA-1]
- IC50 [1]: 5 µM

Structure (SMILES): O=C(c1cc[n+]([O-])cc1)N1CCC(C2(O)c3ccccc3Oc3ccccc32)CC1 [IA-2]
- IC50 [1]: 5 µM

Structure (SMILES): O=C(c1cc[n+]([O-])cc1)N1CCC(C2(O)c3ccccc3Oc3cccnc32)CC1 (stereo not shown) [IA-3]
- Agonist Bronchospasm (in Vivo)-oral, PAF, % Inhibition (PAF-induced bronchospasm): 97%
- Agonist Bronchospasm (in Vivo)-oral, Histamine, % Inhibition [2]: 0%
- IC50 [1]: 2 µM

Structure (SMILES): O=C(c1cc[n+]([O-])cc1)N1CCC(C2(O)c3ccccc3Oc3ncccc32)CC1 (stereo not shown) [IA-4]
- IC50 [1]: 0.8 µM

Structure (SMILES): CN1c2ccccc2C(O)(C2CCN(C(=O)c3cc[n+]([O-])cc3)CC2)c2ccccc21 [IA-5]
- Agonist Bronchospasm (in Vivo)-oral, PAF, % Inhibition (PAF-induced bronchospasm): 7%
- IC50 [1]: 5 µM

Structure (SMILES): O=C(c1cc[n+]([O-])cc1)N1CCC(C2(O)c3ccccc3Sc3ccccc32)CC1 [IA-6]
- Agonist Bronchospasm (in Vivo)-oral, PAF, % Inhibition (PAF-induced bronchospasm): 20%
- IC50 [1]: 1.5 µM

Structure (SMILES): O=C(c1cc[n+]([O-])cc1)N1CCC(C2(O)c3ccccc3CCc3cccnc32)CC1 (stereo not shown) [IA-8]
- Agonist Bronchospasm (in Vivo)-oral, PAF, % Inhibition (PAF-induced bronchospasm): 25%
- IC50 [1]: 2 µM

Structure (SMILES): [O-][n+]1ccc(CN2CCC(C3(O)c4ccccc4Oc4cnccc43)CC2)cc1 (stereo not shown) [IA-9]
- IC50 [1]: > 10 µM

Structure (SMILES): [O-][n+]1ccc(CN2CCC(C3(O)c4ccccc4Oc4ccccc43)CC2)cc1 [IA-10]
- IC50 [1]: 10 µM

Structure (SMILES): [O-][n+]1ccc(CN2CCC(C3(O)c4ccccc4Oc4cccnc43)CC2)cc1 (stereo not shown) [IA-11]
- IC50 [1]: 5 µM

Structure (SMILES): [O-][n+]1ccc(CN2CCC(C3(O)c4ccccc4Oc4ncccc43)CC2)cc1 (stereo not shown) [IA-12]
- Agonist Bronchospasm (in Vivo)-oral, PAF, % Inhibition (PAF-induced bronchospasm): 42%
- Agonist Bronchospasm (in Vivo)-oral, Histamine, % Inhibition [2]: 0%
- IC50 [1]: 3 µM

Structure (SMILES): [O-][n+]1ccc(CN2CCC(C3(O)c4ccccc4Sc4ccccc43)CC2)cc1 [IA-14]
- IC50 [1]: 1.75 µM
